Assay results reported in the supplement of paper PMC10307832.

Experiments:
Assay in all cases: relative viability (nuclei count vs DMSO), 5 days (fraction); higher = more cells survive
Axitinib + Foretinib = compound: CNC(=O)c1ccccc1Sc1ccc2c(/C=C/c3ccccn3)n[nH]c2c1 [Axitinib] + COc1cc2c(Oc3ccc(NC(=O)C4(C(=O)Nc5ccc(F)cc5)CC4)cc3F)ccnc2cc1OCCCN1CCOCC1 [Foretinib] (partner 0.25 µM)
How it was run: (§1)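 For relative viability, nuclei counts in treated wells were divided by those in vehicle wells. Lung cancer cell lines had been pin-tool dosed in 1536-well plates the day after seeding and cultured for 5 days, then fixed and stained in one step (final 0.05% Triton X-100, 1% formaldehyde, 1 ug/ml Hoechst) and imaged at 4×. Doses were one drug alone or a fixed anchor-drug dose plus five library-drug doses (not always all listed) in √10 steps, and values are duplicate-plate medians.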

Axitinib + Pemetrexed = compound: CNC(=O)c1ccccc1Sc1ccc2c(/C=C/c3ccccn3)n[nH]c2c1 [Axitinib] + Nc1nc2[nH]cc(CCc3ccc(C(=O)N[C@@H](CCC(=O)O)C(=O)O)cc3)c2c(=O)[nH]1 [Pemetrexed] (partner 0.2 µM)
How it was run: as §1

Bemcentinib + Dasatinib = compound: Nc1nc(Nc2ccc3c(c2)CC[C@@H](N2CCCC2)CC3)nn1-c1cc2c(nn1)-c1ccccc1CCC2 [Bemcentinib] + Cc1nc(Nc2ncc(C(=O)Nc3c(C)cccc3Cl)s2)cc(N2CCN(CCO)CC2)n1 [Dasatinib] (partner 0.075 µM)
How it was run: as §1

Bemcentinib + Pemetrexed = compound: Nc1nc(Nc2ccc3c(c2)CC[C@@H](N2CCCC2)CC3)nn1-c1cc2c(nn1)-c1ccccc1CCC2 [Bemcentinib] + Nc1nc2[nH]cc(CCc3ccc(C(=O)N[C@@H](CCC(=O)O)C(=O)O)cc3)c2c(=O)[nH]1 [Pemetrexed] (partner 0.2 µM)
How it was run: as §1

Cell Line	relative viability (Axitinib + Foretinib; first compound 0.005 µM)	relative viability (Axitinib + Foretinib; first compound 0.01581 µM)	relative viability (Axitinib + Foretinib; first compound 0.05 µM)	relative viability (Axitinib + Foretinib; first compound 0.1581 µM)	relative viability (Axitinib + Foretinib; first compound 0.5 µM)	relative viability (Axitinib + Pemetrexed; first compound 0.005 µM)	relative viability (Axitinib + Pemetrexed; first compound 0.01581 µM)	relative viability (Axitinib + Pemetrexed; first compound 0.05 µM)	relative viability (Axitinib + Pemetrexed; first compound 0.1581 µM)	relative viability (Axitinib + Pemetrexed; first compound 0.5 µM)	relative viability (Bemcentinib + Dasatinib; first compound 0.04 µM)	relative viability (Bemcentinib + Dasatinib; first compound 0.1265 µM)	relative viability (Bemcentinib + Dasatinib; first compound 0.4 µM)	relative viability (Bemcentinib + Dasatinib; first compound 1.265 µM)	relative viability (Bemcentinib + Dasatinib; first compound 4 µM)	relative viability (Bemcentinib + Pemetrexed; first compound 0.04 µM)	relative viability (Bemcentinib + Pemetrexed; first compound 0.1265 µM)	relative viability (Bemcentinib + Pemetrexed; first compound 0.4 µM)	relative viability (Bemcentinib + Pemetrexed; first compound 1.265 µM)	relative viability (Bemcentinib + Pemetrexed; first compound 4 µM)
201T	1.07	1.06	0.972	1.17	1.21	0.379	0.3	0.294	0.302	0.332	0.559	0.676	0.591	0.613	0.57	0.307	0.361	0.326	0.361	0.327
A549	0.977	0.973	0.972	0.976	1.23															
A-427	1.12	1.15	1.12	0.94	1.26	1.11	1.1	1.01	0.954	1.14	0.719	0.737	0.68	0.707	0.691	0.966	1.02	1.08	0.928	0.936
ABC-1	1.02	1.04	1.17	0.916	1.29						0.423	0.512	0.59	0.553	0.667					
BEN	0.662	0.514	0.643	0.852	0.573	0.73	0.858	0.801	0.859	0.751	0.272	0.37	0.317	0.22	0.241	0.62	0.895	0.782	0.678	0.592
CAL-12T	1.13	1.08	1.15	1.17	1.21	1.43	1.35	1.28	1.22	1.24	0.366	0.356	0.398	0.45	0.555	1.11	1.47	1.09	1.1	1.13
COR-L23	1.1	0.953	1.13	0.948	1.02	0.197	0.201	0.194	0.192	0.21	0.414	0.531	0.55	0.359	0.482	0.195	0.204	0.204	0.19	0.202
COR-L 105	0.973	1.12	1.16	1.05	1.49	1.14	1.09	1.05	1.25	1.26	0.317	0.328	0.329	0.404	0.272	0.989	1.12	1.18	0.93	1.03
Calu-6	0.955	0.902	0.855	0.904	0.947															
ChaGo-K-1	0.961	1	0.984	0.889	1	0.27	0.262	0.252	0.267	0.274	0.591	0.614	0.636	0.496	0.481	0.265	0.262	0.274	0.244	0.251
